Assay results from patent US20230029496A1, “AMINO ACID ALTERNATIVE CURING SYSTEM” (THE TEXAS A&M UNIVERSITY SYSTEM, priority 2019, published 2023).
“And” between values parts separate entries of the source, which are not always exact repeats. Identical values can stand only once. Like-named read-outs stand apart in the source and are kept apart here. Marks after values point to notes of the source that are not given here.

Key:
[1] = test system: nitric oxide synthase system
Procedure: After thermal processing and chilling according to USDA-FSIS Appendix A—Thermal processing (71° C.) and B—Cooling procedures (2° C.) guidelines, the frankfurters will be vacuum packaged and stored under refrigeration (2° C.) until analyzed at 0, 14, 28 and 56 days post manufacture.
The samples were analyzed for residual nitrite after deproteinization by sample preparation for amino acid analysis by HPLC.
Samples were vacuum packaged and refrigerated and evaluated on Day 1, 7, 14, 28 and 56 post manufacture. Differences between treatment and control samples will be determined using Tukey's Least Significant Difference procedure at P≤0.05 level. The experiment was replicated three times.

[2] = test system: nitric oxide synthase system; settings: beef; for Residual Nitrite, LSMean main effect of Temperature: L-arginine
Procedure: (§1) Fresh ground meat (beef, pork or poultry) was separated in ˜0.5 Kg batches and mixed with 2% salt and 10% added water. […] Each individual batch was mixed (1 min) in a food processor, removed for temperature and pH analyses and then placed into a jerky extruder tube. Approximately 25 g of sample were extruded into 50 mL centrifuge, then capped and labeled and placed into a controlled water batch and heated to a designated internal endpoint temperature (132, 158, or 165° F.).
(§2) Samples also contained 547 ppm sodium erythorbate, a cure accelerator (Phase I) and without sodium erythorbate (Phase II). Samples were placed into test tubes and heated in a controlled water bath to 132, 158 and 165° F. Samples were held in a 40° F. cooler for seven days then tested for residual nitrite. Residual nitrite was tested after deproteinization for amino acid analysis by HPLC. Determination of nitrite (UV/VIS Spectrophotometric Method) was used to detect any residual nitrite for best results in detecting minute amounts of nitrite. Residual nitrite levels were read in a 96 well plate reader at 540 nm.
(§3) Both phases of the experiment were designed as a factorial (concentration level and endpoint temperature) randomized complete block design with three replications. […] Least squares means were generated and Tukey's HSD used to determine significance at P≤0.05.

[3] = test system: nitric oxide synthase system; settings: pork; for Residual Nitrite, LSMean main effect of Temperature: L-arginine
Procedure: as §1, §2, §3

[4] = Phase I, with 547 ppm sodium erythorbate, 1000 ppm L-arginine, 132° F.
[5] = Phase I, with 547 ppm sodium erythorbate, 1000 ppm L-arginine, 158° F.
[6] = Phase I, with 547 ppm sodium erythorbate, 1000 ppm L-arginine, 165° F.
[7] = Phase I, with 547 ppm sodium erythorbate, 2000 ppm L-arginine, 132° F.
[8] = Phase I, with 547 ppm sodium erythorbate, 2000 ppm L-arginine, 158° F.
[9] = Phase I, with 547 ppm sodium erythorbate, 2000 ppm L-arginine, 165° F.
[10] = Phase I, with 547 ppm sodium erythorbate, 3000 ppm L-arginine, 132° F.
[11] = Phase I, with 547 ppm sodium erythorbate, 3000 ppm L-arginine, 158° F.
[12] = Phase I, with 547 ppm sodium erythorbate, 3000 ppm L-arginine, 165° F.
[13] = Phase I, with 547 ppm sodium erythorbate, 4000 ppm L-arginine, 132° F.
[14] = Phase I, with 547 ppm sodium erythorbate, 4000 ppm L-arginine, 158° F.
[15] = Phase I, with 547 ppm sodium erythorbate, 4000 ppm L-arginine, 165° F.
[16] = Phase I, with 547 ppm sodium erythorbate, 5000 ppm L-arginine, 132° F.
[17] = Phase I, with 547 ppm sodium erythorbate, 5000 ppm L-arginine, 158° F.
[18] = Phase I, with 547 ppm sodium erythorbate, 5000 ppm L-arginine, 165° F.
[19] = Phase II, without 547 ppm sodium erythorbate, 1000 ppm L-arginine
[20] = Phase II, without 547 ppm sodium erythorbate, 1000 ppm L-arginine, 132° F.
[21] = Phase II, without 547 ppm sodium erythorbate, 1000 ppm L-arginine, 158° F.
[22] = Phase II, without 547 ppm sodium erythorbate, 1000 ppm L-arginine, 165° F.
[23] = Phase II, without 547 ppm sodium erythorbate, 2000 ppm L-arginine
[24] = Phase II, without 547 ppm sodium erythorbate, 2000 ppm L-arginine, 132° F.
[25] = Phase II, without 547 ppm sodium erythorbate, 2000 ppm L-arginine, 158° F.
[26] = Phase II, without 547 ppm sodium erythorbate, 2000 ppm L-arginine, 165° F.
[27] = Phase II, without 547 ppm sodium erythorbate, 3000 ppm L-arginine
[28] = Phase II, without 547 ppm sodium erythorbate, 3000 ppm L-arginine, 132° F.
[29] = Phase II, without 547 ppm sodium erythorbate, 3000 ppm L-arginine, 158° F.
[30] = Phase II, without 547 ppm sodium erythorbate, 3000 ppm L-arginine, 165° F.
[31] = Phase II, without 547 ppm sodium erythorbate, 4000 ppm L-arginine

## N=C(N)NCCC[C@H](N)C(=O)O [L-arginine]
[1]; 3000 ppm L-arginine, Day 1
  residual sodium nitrite: 55.90
[1]; 3000 ppm L-arginine, Day 7
  residual sodium nitrite: 55.83
[1]; 3000 ppm L-arginine, Day 14
  residual sodium nitrite: 62.60
[1]; 3000 ppm L-arginine, Day 28
  residual sodium nitrite: 58.68
[1]; 4000 ppm L-arginine, Day 1
  residual sodium nitrite: 49.92
[1]; 4000 ppm L-arginine, Day 7
  residual sodium nitrite: 60.36
[1]; 4000 ppm L-arginine, Day 14
  residual sodium nitrite: 53.71
[1]; 4000 ppm L-arginine, Day 28
  residual sodium nitrite: 79.07
[1]; 5000 ppm L-arginine, Day 1
  residual sodium nitrite: 73.95
[1]; 5000 ppm L-arginine, Day 7
  residual sodium nitrite: 61.77
[1]; 5000 ppm L-arginine, Day 14
  residual sodium nitrite: 52.91
[1]; 5000 ppm L-arginine, Day 28
  residual sodium nitrite: 100.11
[2]; [4]
  Residual Nitrite, LSMean Conc × Temp: 85.37 ppm
[2]; [5]
  Residual Nitrite, LSMean Conc × Temp: 76.56 ppm
[2]; [6]
  Residual Nitrite, LSMean Conc × Temp: 65.51 ppm
[2]; [7]
  Residual Nitrite, LSMean Conc × Temp: 82.58 ppm
[2]; [8]
  Residual Nitrite, LSMean Conc × Temp: 66.33 ppm
[2]; [9]
  Residual Nitrite, LSMean Conc × Temp: 75.98 ppm
[2]; [10]
  Residual Nitrite, LSMean Conc × Temp: 78.11 ppm
[2]; [11]
  Residual Nitrite, LSMean Conc × Temp: 84.73 ppm
[2]; [12]
  Residual Nitrite, LSMean Conc × Temp: 57.42 ppm
[2]; [13]
  Residual Nitrite, LSMean Conc × Temp: 72.90 ppm
[2]; [14]
  Residual Nitrite, LSMean Conc × Temp: 83.35 ppm
[2]; [15]
  Residual Nitrite, LSMean Conc × Temp: 52.11 ppm
[2]; [16]
  Residual Nitrite, LSMean Conc × Temp: 57.48 ppm
[2]; [17]
  Residual Nitrite, LSMean Conc × Temp: 48.52 ppm
[2]; [18]
  Residual Nitrite, LSMean Conc × Temp: 38.80 ppm
[2]; [19]
  Residual Nitrite, LSMean main effect of Concentration: 107.03^a ppm and 107.03 ppm
[2]; [20]
  Residual Nitrite, LSMean Conc × Temp: 110.31^a ppm
[2]; [21]
  Residual Nitrite, LSMean Conc × Temp: 117.12^a ppm
[2]; [22]
  Residual Nitrite, LSMean Conc × Temp: 93.64^abc ppm
[2]; [23]
  Residual Nitrite, LSMean main effect of Concentration: 105.44^a ppm and 105.44 ppm
[2]; [24]
  Residual Nitrite, LSMean Conc × Temp: 101.25^abc ppm
[2]; [25]
  Residual Nitrite, LSMean Conc × Temp: 96.50^abc ppm
[2]; [26]
  Residual Nitrite, LSMean Conc × Temp: 118.58^a ppm
[2]; [27]
  Residual Nitrite, LSMean main effect of Concentration: 102.80^a ppm and 102.80 ppm
[2]; [28]
  Residual Nitrite, LSMean Conc × Temp: 107.12^ab ppm
[2]; [29]
  Residual Nitrite, LSMean Conc × Temp: 111.73^a ppm
[2]; [30]
  Residual Nitrite, LSMean Conc × Temp: 89.54^abc ppm
[2]; [31]
  Residual Nitrite, LSMean main effect of Concentration: 90.87^a ppm and 90.87 ppm
[2]; Phase II, without 547 ppm sodium erythorbate, 4000 ppm L-arginine, 132° F.
  Residual Nitrite, LSMean Conc × Temp: 101.77^ab ppm
[2]; Phase II, without 547 ppm sodium erythorbate, 4000 ppm L-arginine, 158° F.
  Residual Nitrite, LSMean Conc × Temp: 113.35^a ppm
[2]; Phase II, without 547 ppm sodium erythorbate, 4000 ppm L-arginine, 165° F.
  Residual Nitrite, LSMean Conc × Temp: 57.51^bcd ppm
[2]; Phase II, without 547 ppm sodium erythorbate, 5000 ppm L-arginine
  Residual Nitrite, LSMean main effect of Concentration: 40.23^b ppm and 40.23 ppm
[2]; Phase II, without 547 ppm sodium erythorbate, 5000 ppm L-arginine, 132° F.
  Residual Nitrite, LSMean Conc × Temp: 52.68^cd ppm
[2]; Phase II, without 547 ppm sodium erythorbate, 5000 ppm L-arginine, 158° F.
  Residual Nitrite, LSMean Conc × Temp: 37.81^d ppm
[2]; Phase II, without 547 ppm sodium erythorbate, 5000 ppm L-arginine, 165° F.
  Residual Nitrite, LSMean Conc × Temp: 30.19^d ppm
[2]; Phase II, without 547 ppm sodium erythorbate, 132° F.
  Residual Nitrite, LSMean main effect of Temperature: 95.63^a ppm and 95.63 ppm
[2]; Phase II, without 547 ppm sodium erythorbate, 158° F.
  Residual Nitrite, LSMean main effect of Temperature: 95.30^a ppm and 95.30 ppm
[2]; Phase II, without 547 ppm sodium erythorbate, 165° F.
  Residual Nitrite, LSMean main effect of Temperature: 77.89^b ppm and 77.89 ppm
[3]; Phase I, with 547 ppm sodium erythorbate, 1000 ppm L-arginine
  Residual Nitrite, LSMean main effect of Concentration: 57.57 ppm
[3]; [4]
  Residual Nitrite, LSMean Conc × Temp: 39.35 ppm
[3]; [5]
  Residual Nitrite, LSMean Conc × Temp: 70.84 ppm
[3]; [6]
  Residual Nitrite, LSMean Conc × Temp: 62.52 ppm
[3]; Phase I, with 547 ppm sodium erythorbate, 2000 ppm L-arginine
  Residual Nitrite, LSMean main effect of Concentration: 68.91 ppm
[3]; [7]
  Residual Nitrite, LSMean Conc × Temp: 80.08 ppm
[3]; [8]
  Residual Nitrite, LSMean Conc × Temp: 66.63 ppm
[3]; [9]
  Residual Nitrite, LSMean Conc × Temp: 60.04 ppm
[3]; Phase I, with 547 ppm sodium erythorbate, 3000 ppm L-arginine
  Residual Nitrite, LSMean main effect of Concentration: 61.54 ppm
[3]; [10]
  Residual Nitrite, LSMean Conc × Temp: 60.68 ppm
[3]; [11]
  Residual Nitrite, LSMean Conc × Temp: 61.71 ppm
[3]; [12]
  Residual Nitrite, LSMean Conc × Temp: 62.24 ppm
[3]; Phase I, with 547 ppm sodium erythorbate, 4000 ppm L-arginine
  Residual Nitrite, LSMean main effect of Concentration: 52.07 ppm
[3]; [13]
  Residual Nitrite, LSMean Conc × Temp: 48.21 ppm
[3]; [14]
  Residual Nitrite, LSMean Conc × Temp: 52.12 ppm
[3]; [15]
  Residual Nitrite, LSMean Conc × Temp: 55.87 ppm
[3]; Phase I, with 547 ppm sodium erythorbate, 5000 ppm L-arginine
  Residual Nitrite, LSMean main effect of Concentration: 64.52 ppm
[3]; [16]
  Residual Nitrite, LSMean Conc × Temp: 40.28 ppm
[3]; [17]
  Residual Nitrite, LSMean Conc × Temp: 65.12 ppm
[3]; [18]
  Residual Nitrite, LSMean Conc × Temp: 88.16 ppm
[3]; Phase I, with 547 ppm sodium erythorbate, 132° F.
  Residual Nitrite, LSMean main effect of Temperature: 53.72 ppm
[3]; Phase I, with 547 ppm sodium erythorbate, 158° F.
  Residual Nitrite, LSMean main effect of Temperature: 63.29 ppm
[3]; Phase I, with 547 ppm sodium erythorbate, 165° F.
  Residual Nitrite, LSMean main effect of Temperature: 65.72 ppm
[3]; [19]
  Residual Nitrite, LSMean main effect of Concentration: 73.46^b ppm and 73.46 ppm
[3]; [20]
  Residual Nitrite, LSMean Conc × Temperature: 53.73^c ppm
[3]; [21]
  Residual Nitrite, LSMean Conc × Temperature: 84.43^bc ppm
[3]; [22]
  Residual Nitrite, LSMean Conc × Temperature: 82.22^bc ppm
[3]; [23]
  Residual Nitrite, LSMean main effect of Concentration: 94.97^ab ppm and 94.97 ppm
[3]; [24]
  Residual Nitrite, LSMean Conc × Temperature: 85.87^bc ppm
[3]; [25]
  Residual Nitrite, LSMean Conc × Temperature: 113.28^ab ppm
[3]; [26]
  Residual Nitrite, LSMean Conc × Temperature: 85.76^bc ppm
[3]; [27]
  Residual Nitrite, LSMean main effect of Concentration: 85.31^ab ppm and 85.31 ppm
[3]; [28]
  Residual Nitrite, LSMean Conc × Temperature: 68.26^bc ppm
[3]; [29]
  Residual Nitrite, LSMean Conc × Temperature: 90.54^bc ppm
[3]; [30]
  Residual Nitrite, LSMean Conc × Temperature: 97.13^bc ppm
[3]; [31]
  Residual Nitrite, LSMean main effect of Concentration: 102.65^a ppm and 102.65 ppm
